{"source": "patent US20080138280A1", "about": "“Composition and Methods For Inhibiting Cell Survival” (The Cleveland Clinic Foundation, priority 2003, published 2008)", "key": {"[1]": {"system": "NF-κB-luciferase reporter in A375 cells", "assay": "Dual luciferase NF-κB reporter assay", "format": "cell-based, human", "description": "Dual Luciferase NF-κB Reporter Assay. Please see FIG. 6. The NP-κB-luciferase (NF-κB-luc) reporter plasmid, containing a 2×NF-κB response element fused to the luciferase, has been previously characterized. Renilla luciferase (pRL-TK, Promega, Madison, Wis.) vector was used to normalize for transfection efficiency. A375 cells were transfected with 20 μg NF-κB-luc and 10 μg PRL-TK using Lipofectamine plus (Gibco BRL/Life Technologies, Invitrogen Carlsbad, Calif.). After transfection cells were allowed to recover overnight and were plated in 6 well plates. […] Cells were then harvested in 1× passive lysis buffer and luciferase activity was measured according to the manufacturer's protocol (Promega, Madison, Wis.) using a Wallac 1420 multilabel counter (Perkin Elmer, Gaithersburg, Md.). The fold induction of NF-κB-luciferase for each treatment was based on untreated values normalized to the fold induction of pRL-TK reporter values. The assays were performed in triplicate.\nTransient transfection assays were performed to assess NF-κB transcriptional activity. A375 cells were co-transfected with a NF-κB-luciferase reporter (NF-κB-luc) and Renilla luciferase (to assess transfection efficiency). Cells were pre-treated with NO-Cbl (100 μM) for 16 h followed by treatment with Apo2L/TRAIL (100 ng/ml) or TNF-α (10 ng/ml) for 4 hours."}, "[2]": {"system": "DMN1 (normal melanocytes)", "assay": "Sulforhodamine B cell growth assay, normal cells", "format": "cell-based, human", "description": "(§1) Cell Culture treatments. Cells were maintained in RPMI or DMEM (Mediatech, Herndon, Va.) containing 5% fetal bovine serum (Hyclone, Logan, Utah) and 1% Antibiotic-Antimycotic (GEBCO, Invitrogen Carlsbad, Calif.) as recommended per the American Type Culture Collection media protocol for each cell line. Cells were maintained in 5% CO2 at 37° C. in a humidified tissue culture incubator. Primary non-tumorigenic […] cell lines (DMN-1 and CMN-1), and human foreskin fibroblasts (HFF; CCF, Cleveland, Ohio) were cultured in DMEM-F12 medium supplemented with 10% FBS. Cells were confirmed as mycoplasma free.\n(§2) Sulforhodamine B Cell Growth Assay. Cells were harvested with 0.5% trypsin/0.53 mM EDTA, washed with PBS and resuspended in media containing 10% FBS. Cells were plated in 96-well plates in 0.2-ml aliquots. Cells were allowed to adhere to the plate for 4 h and then NO-Cbl was added in different concentrations to the assay plate. A minimum of four were performed for each treatment. After 16 h, various chemotherapeutic agents including cytokines were added at different concentrations. Growth was monitored by the sulforhodamine B (SRB; Sigma Chemical, St. Louis, Mo.) colorimetric assay. After 36 h, the medium was removed, and the cells were fixed with 10% trichloroacetic acid and stained with SRB. Bound dye was eluted from the cells with 10 mM Tris-HCl (pH 10.5) and absorbance was measured at 570 nm using a Lab systems Multiskan RC 96-well plate reader (Lab Systems Multiscan RC, Thermo Lab Systems, Franklin, Mass.). To quantify the growth of the cells, the experimental absorbance values (Aexp) were compared with initial absorbance readings representing the starting cell numbers (Aini). To determine the starting cell number, an additional 96-well plate was seeded with cells and fixed at the beginning of the experiment. After 5 days growth, the untreated control cells and drug treated cells were fixed and stained with SRB. The absorbances derived from the initial plate and from the untreated cells at the end of the growth period (Afin) were defined as 0% and 100% growth, respectively. The percentage control growth (100%×[Aexp−Aini]/[Afin−Aini]) is expressed as a percentage of untreated controls.\n(§3) Anti-tumor effects of NO-Cbl, Apo2L/TRAIL, and the combination iii vitro. NO-Cbl enhances the anti-cellular effects of Apo2L/TRAIL against malignant Apo2L/TRAIL-resistant cell lines. First the antiproliferative effects of three melanoma lines A375, WM9, and WM3211 (previously reported to be resistant to Apo2L/TRAIL) were measured. Although Apo2L/TRAIL was used as the chemotherapeutic agents, a wide range of anti-cancer drugs and techniques would be enhanced by the NO based cobalamin compounds due to their effective inhibition of the cell survival mechanism. Such other chemotherapeutic agents are tested in the following examples. […] The SRB antiproliferative assay, used by the National Cancer Institute (NCI) to evaluate new chemotherapeutic agents was used herein. Median effect analysis was used to analyze drug interactions between NO-Cbl and Apo2L/TRAIL. Cells were pre-treated with NO-Cbl for 16 h followed by Apo2L/TRAIL for 24 h.\n(§4) The effects of nitrosylcobalamin (NO-Cbl), Apo2L/TRAIL, and the combination on the proliferation of melanoma cell lines A375, WM9, and WM3211 and normal cell lines CMN1, DMN1, and fibroblasts were observed. Cells were treated with NO-Cbl, Apo2L/TRAIL, or pre-treated with NO-Cbl followed by Apo2L/TRAIL for three days, and growth was measured by the colorimetric sulforhodamine B assay. Data points were generated to represent the mean of four replicates±standard error of the mean (SEM). Synergy between NO-Cbl and Apo2L/TRAIL was determined by median effect analysis, (combination index >1 indicates antagonism, =1 indicates additivity, and <1 indicates synergy). The combination index is represented in FIG. 1 and as the combination index observed at the specified concentrations. […]"}, "[3]": {"system": "CMN1 (normal melanocytes)", "assay": "Sulforhodamine B cell growth assay, normal cells", "format": "cell-based, human", "description": "as §1, §2, §3, §4"}, "normal fibroblasts": {"system": "normal fibroblasts", "assay": "Sulforhodamine B cell growth assay, normal cells", "format": "cell-based, human", "description": "as §1, §2, §3, §4"}, "IκB kinase (IKK)": {"system": "IκB kinase (IKK)", "assay": "IκB kinase (IKK) activity assay with GST-IκBα-(1-54) and [γ32P]ATP", "format": "cell-based, human", "conditions": "A375 pretreated with NO-Cbl", "description": "FIG. 8 illustrates the assessment of IκB kinase (IKK) activity using recombinant GST-IκBα-(1-54) and [γ^32P]ATP as substrates. The phosphorylated GST fusion protein was detected by autoradiography. IKK activity was determined in A375 cells pretreated with NO-Cbl followed by Apo2L/TRAIL or TNF-α stimulation for 30 minutes and 15 minutes, respectively. […] Anti-β-actin antibody served as the irrelevant antibody with no phosphorylation of GST-IκBα-(1-54) observed."}, "NIH-OVCAR-3 cells": {"system": "NIH-OVCAR-3 cells", "assay": "Colony formation after gamma irradiation", "format": "cell-based", "conditions": "NO-Cbl 50 μM 16 hours, then 1, 2 and 4 Gy; colonies after 23 days", "description": "FIG. 7 illustrates that NO-Cbl sensitizes NIH-OVCAR-3 cells to gamma irradiation. NIH-OVCAR-3 cells were pre-treated with NO-Cbl (50 μM) for 16 hours. Cells were then washed and irradiated with 1, 2, and 4 Gy from a Cesium source. Cells were plated in 100 mm dishes and allowed to form colonies. Plates were examined after 23 days and colony number was determined by automated counting of stained colonies. Data is expressed as percent control colony forming units (CFU)."}}, "data": [{"substance": "nitrosylcobalamin [NO-Cbl]", "values": [{"measurement": "inhibition of NF-κB activity in response to Apo2L/TRAIL", "setting": "[1]; NO-Cbl 100 μM 16 h followed by Apo2L/TRAIL 100 ng/ml 4 hours", "result": 34, "unit": "%"}, {"measurement": "inhibition of NF-κB activity in response to TNF-α", "setting": "[1]; NO-Cbl 100 μM 16 h followed by TNF-α 10 ng/ml 4 hours", "result": 51, "unit": "%"}, {"measurement": "antiproliferative effect on normal cells", "setting": "[2]", "result": "completely resistant"}, {"measurement": "antiproliferative effect on normal cells", "setting": "[3]", "result": "completely resistant"}, {"measurement": "antiproliferative effect on normal cells", "setting": "normal fibroblasts", "result": "completely resistant"}, {"measurement": "IKK activity stimulated with Apo2L/TRAIL", "setting": "IκB kinase (IKK); Apo2L/TRAIL 30 minutes", "result": "inhibited"}, {"measurement": "IKK activity stimulated with TNF-α", "setting": "IκB kinase (IKK); TNF-α 15 minutes", "result": "inhibited"}, {"measurement": "sensitization to gamma irradiation (colony forming units)", "setting": "NIH-OVCAR-3 cells", "result": "sensitizes"}]}]}
